Measurements taken from article PMC8409973, “Synthesis, antiproliferative and antitrypanosomal activities, and DNA binding of novel 6-amidino-2-arylbenzothiazoles” (Journal of Enzyme Inhibition and Medicinal Chemistry, 2021).
Where a name gives a salt, the structure may show the parent alone.

Columns and labels:
[1] = system: HeLa (cervical carcinoma); test: Proliferation assay (MTT, 72 h) on HeLa; format: cell-based; conditions: Homo sapiens
Method: (§1) Human cell lines SW620 (colorectal adenocarcinoma, metastatic), MCF-7 (human breast adenocarcinoma), CFPAC-1 (pancreatic adenocarcinoma), HeLa (cervical carcinoma), and HFF-1 (human foreskin fibroblasts) were obtained from the American Type Culture Collection (ATCC). Cells were cultured in a humidified atmosphere at 37 °C with 5% CO2. As a growth medium, Dulbecco’s modified Eagle medium (DMEM) was used with the addition of foetal bovine serum (10%), L-glutamine (2 mM), and antibiotics: streptomycin ([…]) and penicillin (100 U/ml).
(§2) Cells were seeded onto 96-well microtiter plates at a seeding density of 3000 cells/well for carcinoma cell lines, and 5000 cells/well for normal human fibroblasts. The next day, cells were treated with test agents at five different concentrations (0.01–100 µM) and further incubated for 72 h. […] 5-Fluorouracil (5-FU, 0.384 M fluorouracilum, Pliva 500 mg/10 ml) dissolved in physiological solution was used as a positive control. Following 72 h incubation, the MTT assay was performed and measured absorbances were transformed into a percentage of cell growth as described previously. Results were obtained from three independent experiments. IC50 values were calculated using linear regression analysis (FORECAST option taking into account the concentration range of two experimental points above and below IC50).

[2] = system: CFPAC-1 (pancreatic adenocarcinoma); test: Proliferation assay (MTT, 72 h) on CFPAC-1; format: cell-based; conditions: Homo sapiens, CFPAC-1, 72 h
Method: as §1, §2

[3] = system: SW620 (colorectal adenocarcinoma, metastatic); test: Proliferation assay (MTT, 72 h) on SW620; format: cell-based; conditions: Homo sapiens, SW-620, SW620, 72 h
Method: as §1, §2

[4] = system: L6 cells (a rat myoblast line); test: L6 cell proliferation (cytotoxicity, resazurin); format: cell-based; conditions: for IC50: 144 h, rat myoblast L6, 6 days; for SI IC50 (L6/Tb): SI = [IC50 L6 cells]/[IC50 T. brucei]
[5] = system: HFF-1 (human foreskin fibroblasts); test: Proliferation assay (MTT, 72 h) on normal fibroblasts HFF-1; format: cell-based; conditions: HFF-1 normal fibroblasts
Method: as §1, §2

[6] = system: Bloodstream form T. b. brucei (strain 221); test: Antitrypanosomal screening (resazurin); format: cell-based; conditions: Trypanosoma brucei; for IC90: concentration that inhibited growth by 90%, mean ± SEM; for IC50: mean of triplicate ± SEM
Method: Resazurin (20 μl at 0.125 mg ml^−1) was added after 48 h, the plates were incubated for a further 16 h, and then read in a Spectramax plate reader, and data analysed using GraphPad Prism. Each drug was tested in triplicate.

[7] = system: MCF-7 (human breast adenocarcinoma); test: Proliferation assay (MTT, 72 h) on MCF-7; format: cell-based; conditions: MCF7, MCF-7, 72 h
Method: as §1, §2

Structure (SMILES)	IC50 [1]	IC50 [2]	IC50 [3]	IC50 [4]	SI IC50 (L6/Tb) [4]	IC50 [5]	IC90 [6]	IC50 [6]	IC50 [7]	melting point
N=C(N)c1ccc2nc(-c3cn(-c4ccccc4)nn3)sc2c1 [13a, 6-Amidinium-2-(1-phenyl-1H-1,2,3-triazole-4-yl)benzothiazole methanesulfonate]	7.77 ± 0.05 µM	26.6 ± 4.69 µM	24.2 ± 4.31 µM	7.97 ± 0.96 µM	3.9	2.07 ± 0.13 µM	2.52 ± 0.34 µM	2.02 ± 0.1 µM	25.6 ± 3.15 µM	–
CS(=O)(=O)O.c1ccc(Cn2cc(-c3nc4ccc(C5=NCCCN5)cc4s3)nn2)cc1 [15d, 6-(3,4,5,6-Tetrahydropyrimidin-1-ium-2-yl)-2-(1-benzyl-1H-1,2,3-triazole-4-yl)benzothiazole methanesulfonate]	31 ± 4.5 µM	49.9 ± 12.5 µM	31.9 ± 8.38 µM	–	–	18.9 ± 0.19 µM	–	–	40.6 ± 10.6 µM	170 to 174 °C
COc1ccc(-n2cc(COc3nc4ccc(C5=NCCN5)cc4s3)nn2)cc1.CS(=O)(=O)O [11c, 6-(4,5-Dihydro-1H-imidazol-3-ium-2-yl)-2-{[1-(4-methoxyphenyl)-1H-1,2,3-triazol-4-yl]methoxy}benzothiazole methanesulfonate]	2.53 ± 0.01 µM	2.06 ± 0.7 µM	0.5 ± 0.16 µM	< 2 µM	–	0.24 ± 0.13 µM	0.23 ± 0.05 µM	0.19 ± 0.04 µM	0.86 ± 0.97 µM	253 to 257 °C
N=C(N)c1ccc2nc(-c3ccc(OCc4cn(-c5ccc(Cl)cc5)nn4)cc3)sc2c1 (as salt: methanesulfonate) [10b]	–	–	–	–	–	–	–	–	–	276 to 279 °C
CS(=O)(=O)O.c1ccc(Cn2cc(-c3nc4ccc(C5=NCCN5)cc4s3)nn2)cc1 [14d, 6-(4,5-Dihydro-1H-imidazol-3-ium-2-yl)-2-(1-benzyl-1H-1,2,3-triazole-4-yl)benzothiazole methanesulfonate]	0.82 ± 0.01 µM	8.71 ± 3.74 µM	0.85 ± 0.61 µM	6.64 ± 0.53 µM	1.8	0.11 ± 0.01 µM	8.66 ± 0.2 µM	3.68 ± 0.22 µM	1.76 ± 1.17 µM	236 to 240 °C
N=C(N)c1ccc2nc(-c3cn(Cc4ccccc4)nn3)sc2c1 [13d, 6-Amidinium-2-(1-benzyl-1H-1,2,3-triazole-4-yl)benzothiazole methanesulfonate]	14.9 ± 1.54 µM	25.9 ± 3.71 µM	9.48 ± 0.29 µM	–	–	4.04 ± 1.35 µM	–	–	22.6 ± 0.91 µM	–
CS(=O)(=O)O.c1ccc(-n2cc(-c3nc4ccc(C5=NCCCN5)cc4s3)nn2)cc1 [15a, 6-(3,4,5,6-Tetrahydropyrimidin-1-ium-2-yl)-2-(1-phenyl-1H-1,2,3-triazole-4-yl)benzothiazole methanesulfonate]	7.62 ± 0.84 µM	37.6 ± 4.58 µM	4.15 ± 1.58 µM	–	–	0.53 ± 0.1 µM	–	–	8.31 ± 0.12 µM	269 to 274 °C
COc1ccc(-n2cc(-c3nc4ccc(C(=N)N)cc4s3)nn2)cc1 (as salt: methanesulfonate) [13c, 6-Amidinium-2-[1-(4-methoxyphenyl)-1H-1,2,3-triazole-4-yl]benzothiazole methanesulfonate]	–	–	–	–	–	–	–	–	–	> 300 °C
N=C(N)c1ccc2nc(-c3ccc(OCc4cn(Cc5ccccc5)nn4)cc3)sc2c1 [10d]	1.77 ± 0.45 µM	5.15 ± 0.23 µM	1.18 ± 0.18 µM	–	–	0.76 ± 0.18 µM	–	–	3.02 ± 0.98 µM	–
COc1ccc(-n2cc(COc3nc4ccc(C5=NCCCN5)cc4s3)nn2)cc1.CS(=O)(=O)O [12c, 6-(3,4,5,6-Tetrahydropyrimidin-1-ium-2-yl)-2-{[1-(4-methoxyphenyl)-1H-1,2,3-triazol-4-yl]methoxy}benzothiazole methanesulfonate]	2.64 ± 0.46 µM	3.31 ± 0.6 µM	5.22 ± 1.24 µM	2.92 ± 0.26 µM	3.2	0.46 ± 0.27 µM	1.18 ± 0.02 µM	0.9 ± 0.05 µM	3.46 ± 0.45 µM	259 to 264 °C
COc1ccc(-n2cc(COc3ccc(-c4nc5ccc(C(=N)N)cc5s4)cc3)nn2)cc1 [10c]	2.87 ± 1.24 µM	3.45 ± 0.29 µM	3.86 ± 0.29 µM	< 2 µM	–	0.31 ± 0.08 µM	1.26 ± 0.02 µM	1 ± 0.07 µM	3.66 ± 1.49 µM	–
N=C(N)c1ccc2nc(-c3cn(-c4ccc(Cl)cc4)nn3)sc2c1 (as salt: methanesulfonate) [13b, 6-Amidinium-2-[1-(4-chlorophenyl)-1H-1,2,3-triazole-4-yl]benzothiazole methanesulfonate]	–	–	–	–	–	–	–	–	–	> 300 °C
N=C(N)c1ccc2nc(-c3cn(-c4ccccc4)nn3)sc2c1 (as salt: methanesulfonate) [13a, 6-Amidinium-2-(1-phenyl-1H-1,2,3-triazole-4-yl)benzothiazole methanesulfonate]	–	–	–	–	–	–	–	–	–	289 to 293 °C
COc1ccc(-n2cc(COc3ccc(-c4nc5ccc(C(=N)N)cc5s4)cc3)nn2)cc1 (as salt: methanesulfonate) [10c]	–	–	–	–	–	–	–	–	–	265 to 270 °C
N=C(N)c1ccc2nc(-c3cn(Cc4ccccc4)nn3)sc2c1 (as salt: methanesulfonate) [13d, 6-Amidinium-2-(1-benzyl-1H-1,2,3-triazole-4-yl)benzothiazole methanesulfonate]	–	–	–	–	–	–	–	–	–	262 to 267 °C
N=C(N)c1ccc2nc(-c3ccc(OCc4cn(Cc5ccccc5)nn4)cc3)sc2c1 (as salt: methanesulfonate) [10d]	–	–	–	–	–	–	–	–	–	253 to 257 °C
COc1ccc(-n2cc(-c3nc4ccc(C5=NCCCN5)cc4s3)nn2)cc1.CS(=O)(=O)O [15c, 6-(3,4,5,6-Tetrahydropyrimidin-1-ium-2-yl)-2-[1-(4-methoxyphenyl)-1H-1,2,3-triazole-4-yl]benzothiazole methanesulfonate]	4.3 ± 0.41 µM	4.74 ± 0.14 µM	4.07 ± 1.06 µM	–	–	1.33 ± 0.17 µM	–	–	4.28 ± 0.06 µM	261 to 265 °C
N=C(N)c1ccc2nc(-c3cn(-c4ccc(Cl)cc4)nn3)sc2c1 [13b, 6-Amidinium-2-[1-(4-chlorophenyl)-1H-1,2,3-triazole-4-yl]benzothiazole methanesulfonate]	2.74 ± 0.21 µM	3.17 ± 0.11 µM	3.55 ± 0.85 µM	2.69 ± 0.42 µM	4.0	0.85 ± 0.05 µM	1.02 ± 0.02 µM	0.67 ± 0.07 µM	3.32 ± 0.01 µM	–
N=C(N)c1ccc2nc(-c3ccc(OCc4cn(-c5ccccc5)nn4)cc3)sc2c1 [10a]	2.89 ± 0.11 µM	3.34 ± 0.19 µM	2.89 ± 0.03 µM	< 2 µM	–	0.17 ± 0.04 µM	1.45 ± 0.11 µM	1.17 ± 0.1 µM	3.39 ± 1.17 µM	–
CS(=O)(=O)O.c1ccc(Cn2cc(COc3nc4ccc(C5=NCCN5)cc4s3)nn2)cc1 [11d, 6-(4,5-Dihydro-1H-imidazol-3-ium-2-yl)-2[(1-benzyl-1H-1,2,3-triazol-4-yl)methoxy]benzothiazole methanesulfonate]	1.4 ± 0.75 µM	1.21 ± 0.74 µM	1.81 ± 0.55 µM	< 0.2 µM	–	0.18 ± 0.02 µM	1.3 ± 0.02 µM	1.09 ± 0.02 µM	2.21 ± 1.17 µM	227 to 232 °C
COc1ccc(-n2cc(-c3nc4ccc(C(=N)N)cc4s3)nn2)cc1 [13c, 6-Amidinium-2-[1-(4-methoxyphenyl)-1H-1,2,3-triazole-4-yl]benzothiazole methanesulfonate]	3.64 ± 1.44 µM	5.23 ± 0.87 µM	5.39 ± 0.41 µM	–	–	2.99 ± 1.17 µM	–	–	4.5 ± 0.43 µM	–
CS(=O)(=O)O.c1ccc(-n2cc(COc3nc4ccc(C5=NCCCN5)cc4s3)nn2)cc1 [12a, 6-(3,4,5,6-Tetrahydropyrimidin-1-ium-2-yl)-2-[(1-phenyl-1H-1,2,3-triazol-4-yl)methoxy] benzothiazole methanesulfonate]	2.95 ± 0.38 µM	3.98 ± 0.29 µM	4.17 ± 0.28 µM	–	–	0.44 ± 0.03 µM	–	–	3.98 ± 0.04 µM	249 to 254 °C
N=C(N)c1ccc2nc(-c3ccc(OCc4cn(-c5ccccc5)nn4)cc3)sc2c1 (as salt: methanesulfonate) [10a]	–	–	–	–	–	–	–	–	–	272 to 275 °C
CS(=O)(=O)O.c1ccc(Cn2cc(COc3nc4ccc(C5=NCCCN5)cc4s3)nn2)cc1 [12d, 6-(3,4,5,6-Tetrahydropyrimidin-1-ium-2-yl)-2-[(1-benzyl-1H-1,2,3-triazol-4-yl)methoxy]benzothiazole methanesulfonate]	8.6 ± 0.85 µM	23.4 ± 0.29 µM	7.94 ± 2.58 µM	–	–	1.74 ± 0.29 µM	–	–	6.01 ± 0.53 µM	197 to 199 °C
